Eight compounds from ChEMBL document CHEMBL1154855 (Eur J Med Chem, 2010) can be followed below.

The assay relates to Vaccinia virus. Description: Antiviral activity against Vaccinia virus infected in HEL cells assessed as protection from virus-induced cytopathogenicity after 2 to 3 days by MTT assay. Conditions: Orthopoxvirus vaccinia. Type of assay: functional, organism-based. In general terms: Protection from cytopathic effect is a common read-out in antiviral testing.

The EC50 is the concentration at which the effect is half-maximal. With `COc1cc(/C=C/C(=O)CC(=O)/C=C/c2ccc(OCCOC(=O)CCC(NC(=O)c3ccc(NCc4cnc5nc(N)[nH]c(=O)c5n4)cc3)C(=O)O)c(OC)c2)ccc1O` (stereo not drawn), the EC50 is > 0.119 µM.

`Nc1nc2c(ncn2COC(CO)CO)c(=O)[nH]1` [GANCICLOVIR]: the EC50 was > 100 µM.

Turning to `CCCCCCCCCC(=O)Oc1ccc(/C=C/C(=O)CC(=O)/C=C/c2ccc(OC(=O)CCCCCCCCC)c(OC)c2)cc1OC`, the EC50 was > 0.147 µM. For the compound `O=c1[nH]c(=O)n([C@H]2C[C@H](O)[C@@H](CO)O2)cc1/C=C/Br` [BRIVUDINE], the EC50 was 2 µM. On to `COc1cc(/C=C/C(=O)CC(=O)/C=C/c2ccc(OC(=O)[C@H](Cc3ccccc3)NC(=O)[C@@H](N)Cc3c[nH]c4ccccc34)c(OC)c2)ccc1OC(=O)[C@H](Cc1ccccc1)NC(=O)[C@@H](N)Cc1c[nH]c2ccccc12`, for which the EC50 is > 0.038 µM. Take `COc1cc(/C=C/C(=O)CC(=O)/C=C/c2ccc(OC(=O)CCC(NC(=O)c3ccc(NCc4cnc5nc(N)[nH]c(=O)c5n4)cc3)C(=O)O)c(OC)c2)ccc1OC(=O)CCC(NC(=O)c1ccc(NCc2cnc3nc(N)[nH]c(=O)c3n2)cc1)C(=O)O` (stereo not drawn): the EC50 was > 0.082 µM. In the case of `COc1cc(/C=C/C(=O)C(CCOC(=O)CCC(NC(=O)c2ccc(NCc3cnc4nc(N)[nH]c(=O)c4n3)cc2)C(=O)O)C(=O)/C=C/c2ccc(O)c(OC)c2)ccc1O` (stereo not drawn), the EC50 is > 0.011 µM. Regarding `NC(=O)c1ncn([C@@H]2O[C@H](CO)[C@@H](O)[C@H]2O)n1` [RIBAVIRIN], the EC50 turned out to be 85 µM.
